Where two headings read alike, the source gives them in different places.
Legend:
Type in all cases: cell-based
[1] = test system: MDA-MB-231; assay: Growth inhibition (cell proliferation assay), MDA-MB-231; conditions: read-out: Compound 1 Growth Inhibition IC50
[2] = test system: Akt(S473); assay: Inhibition of Akt(S473) phosphorylation in cell lines; conditions: read-out: p-Akt (S473)
[3] = test system: NCI-H23; assay: Growth inhibition (cell proliferation assay), NCI-H23; conditions: read-out: Compound 1 Growth Inhibition IC50
[4] = test system: A549; assay: Growth inhibition (cell proliferation assay), A549; conditions: read-out: Compound 1 Growth Inhibition IC50
[5] = test system: S6RP(S235/S236); assay: Inhibition of S6RP(S235/S236) phosphorylation in cell lines; conditions: read-out: p-S6RP(S235/S236)

`CO[C@H]1CC[C@H](N2C(=O)CNc3ncc(-c4ccc(C(C)(C)O)nc4)nc32)CC1` [Compound 1, 7-(6-(2-hydroxypropan-2-yl)pyridin-3-yl)-1-((1r,4r)-4-methoxycyclohexyl)-3,4-dihydropyrazino-[2,3-b]pyrazin-2(1H)-one] showed an IC50 [1] of 1770 nM, an IC50 ([2]; A549) of 120 nM and an IC50 ([2]; HCT116) of 100 nM. The IC50 ([2]; HT-29) was 250 nM, the IC50 ([2]; MDA-MB-231) was 40 nM and the IC50 ([2]; NCI-H23) was 100 nM. For the same molecule, the IC50 ([2]; PC3) was 10 nM, the IC50 ([2]; U-87 MG) was 150 nM and the IC50 [3] was 3710 nM. For the same molecule, the IC50 [4] was 320 nM, the IC50 ([5]; A549) was 40 nM and the IC50 ([5]; HCT116) was 80 nM. The IC50 ([5]; HT-29) was 10 nM, the IC50 ([5]; MDA-MB-231) was 30 nM and the IC50 ([5]; NCI-H23) was 70 nM. The IC50 ([5]; PC3) was 20 nM and the IC50 ([5]; U-87 MG) was 190 nM.
